Experimental findings from patent US20050070603A1, “Use of glycerides to alleviate symptoms of digestive disorders” (priority 2003, published 2005) are described below.

For the data set, the system named is Irritable Bowel Syndrome symptoms (pain associated with intestinal gas, bloating and constipation). The data set can be described thus: Case report: patient suffering from IBS taking MCT orally. The data set is classed as in vivo, human. The protocol: Over a period of 8 weeks, the patient increased the dose of MCT to approx. 15 mL (in approx. 240 mL of soymilk) per day to achieve complete symptomatic relief from IBS.

Turning to Caprylic triglyceride [Neobee 895], the “change in HDL, LDL and triglyceride levels” value (after 10 months of use of MCT) was “no noticeable change”. Under “continued use, approx. 1 year”, the “adverse effects on continued use” value is reported as “without any adverse effects” and the “continued relief from IBS symptoms” value is recorded as “complete relief from the IBS symptoms”. Further, the “improvement of IBS symptoms” value (initially, one teaspoon (approx. 5 mL) MCT as emulsion in soymilk (approx. 240 mL) per day, one patient) is given as “some improvement”. The “relief of IBS symptoms” value (one tablespoon (approx. 15 mL) MCT per day, oral, in approx. 240 mL soymilk, dose increased over 8 weeks, one patient) is recorded as “complete relief of the symptoms”.
